Source: patent publication US11827628B2, “Compositions and methods for inhibition of the JAK pathway” (Rigel Pharmaceuticals, Inc., priority 2005, dated 2023)
Where a name gives a salt, the structure may show the parent alone. Read-outs that look alike come from different tables or passages of the source.

System: Primary human T-cells
Test: Primary Human T-Cell Proliferation Assay Stimulated with IL-2 (CellTiter-Glo)
Format: cell-based
Settings: read-out: IC50, Example 42
Procedure, shortened: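 IC50 derived from CellTiter-Glo ATP signal after 72 hours of IL-2-driven proliferation at 37° C. Cells: primary human T-cells from blood, stimulated beforehand 3-4 days on anti-CD3/anti-CD28 with IL-2, then rested from IL-2 before compound exposure in duplicate; IL-2-free wells served as unstimulated control.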

[1] = primary human T-cell proliferation stimulated with IL-2
[2] = primary human T-cells stimulated with IL-2, proliferation

For C[Si](C)(C)C#Cc1cnc(Nc2cccc(S(N)(=O)=O)c2)nc1Nc1ccc(OCC#N)cc1 [Compound I-15, N2-(3-Aminosulfonylphenyl)-N4-(4-cyanomethyleneoxyphenyl)-5-trimethylsilylacetylene-2,4-pyrimidinediamine], the IC50 [1] was 1180 nM.

In the case of Cc1cc(Nc2nc(Nc3ccc(S(N)(=O)=O)cc3)ncc2F)ccc1OCC(N)=O [Compound I-113, N4-(4-Aminocarbonylmethoxy-3-methyl)phenyl-N2-(4-aminosulfonyl)phenyl-5-fluoro-2,4-pyrimidinediamine], the IC50 [1] is reported as 1690 nM.

CNS(=O)(=O)c1cc(Nc2ncc(F)c(Nc3ccc(Cn4ccnc4)cc3)n2)ccc1C [III-86, 5-Fluoro-N2-[3-(N-methylaminosulfony)-4-methylphenyl]-N4-[4-(1-imidazolylmethyl)phenyl]-2,4-pyrimidinediamine dihydrochloride] was tested, and the IC50 (primary human T-cell proliferation stimulated with IL-2, dihydrochloride) was 93.9 nM.

For Cc1ccc(Nc2ncc(F)c(Nc3ccc4c(c3)CNCC4)n2)cc1S(N)(=O)=O [VII-16, N2-(3-Aminosulfonyl-4-methylphenyl)-5-fluoro-N4-(1,2,3,4-tetrahydroisoquin-7-yl)-2,4-pyrimidinediamine], the IC50 [2] was 1070 nM.

Compound “N2-(3-Aminosulphonylphenyl)-5-fluoro-N4-[4-(3-pyridinylmethyl)benzo[1,4]oxazin-7-yl]-2,4-pyrimidinediamine [VII-55]” has an IC50 [2] of 599 nM.

Compound CCN(CC)CCNS(=O)(=O)c1ccc(Nc2ncc(F)c(Nc3ccc(OCc4cccnc4)cc3)n2)cc1 [Compound I-191, N2-[4-(2-N,N-Diethylaminoethyl)aminosulfonylphenyl)-5-fluoro-N4-[4-(3-pyridinyl)methyleneoxyphenyl]-2,4-pyrimidinediamine] has an IC50 [1] of 292 nM.

COCCCn1ncc2cc(Nc3nc(Nc4cccc(S(N)(=O)=O)c4)ncc3F)ccc21 [VII-22, N2-(3-Aminosulfonylphenyl)-5-fluoro-N4-[1-(3-methoxypropyl)indazolin-5-yl]-2,4-pyrimidinediamine] gave an IC50 [2] of 128 nM.

For Cc1cc(COc2ccc(Nc3nc(Nc4ccc(C)c(S(N)(=O)=O)c4)ncc3F)cc2)n(C)n1 [Compound I-198, N2-(3-Aminosulfonyl-4-methylphenyl)-N4-[4-(1,3-dimethyl-(1H)-pyrazol-5-yl)methyleneoxyphenyl]-5-fluoro-2,4-pyrimidinediamine], the IC50 [1] was 460 nM.

Work on Cc1ccc(Nc2ncc(F)c(Nc3ccc(OCc4ccccn4)cc3)n2)cc1S(N)(=O)=O [Compound I-160, N2-(3-Aminosulfonyl-4-methylphenyl)-5-fluoro-N4-[4-(2-pyridinyl)methyleneoxyphenyl]-2,4-pyrimidinediamine] yielded an IC50 [1] of 248 nM.

With CC(C)c1ccc(Nc2ncc(F)c(Nc3ccc(OCC#N)cc3)n2)cc1S(N)(=O)=O [Compound I-8, N2-(3-Aminosulfonyl-4-iso-propylphenyl)-N4-(4-cyanomethyleneoxyphenyl)-5-fluoro-2,4-pyrimidinediamine] the IC50 [1] was 174 nM.

With CCS(=O)(=O)N1CCc2cc(Nc3nc(Nc4ccc(S(N)(=O)=O)cc4)ncc3F)ccc2C1 [VII-13, N2-(4-aminosulfonyl)phenyl-N4-[(N-ethylsulfonyl)-1,2,3,4-tetrahydroisoquinolin-6-yl]-5-fluoro-2,4-pyrimidinediamine] the IC50 [2] was 380 nM.

In the case of CCN(CC)CCNS(=O)(=O)c1ccc(Nc2ncc(F)c(Nc3cccc(OCc4cccnc4)c3)n2)cc1 [Compound I-186, N2-[4-(2-N,N-Diethylaminoethyl)aminosulfonylphenyl)-5-fluoro-N4-[3-(3-pyridinyl)methyleneoxyphenyl]-2,4-pyrimidinediamine], the IC50 [1] is reported as 1080 nM.

Work on Cc1cc(COc2ccc(Nc3nc(Nc4ccc(C)c(S(N)(=O)=O)c4)ncc3F)cc2)[nH]n1 [Compound I-197, N2-(3-Aminosulfonyl-4-methylphenyl)-5-fluoro-N4-[4-(3-methyl-(1H)-pyrazol-5-yl)methyleneoxyphenyl]-2,4-pyrimidinediamine] yielded an IC50 [1] of 329 nM.

NS(=O)(=O)c1cccc(Nc2ncc(F)c(Nc3ccc(OCC(F)(F)F)cc3)n2)c1 [VI-47, N2-(3-Aminosulfonylphenyl)-5-fluoro-N4-(4-trifluoromethylmethyleneoxyphenyl)-2,4-pyrimidinediamine] showed an IC50 [2] of 259 nM.

Compound Cc1ccc(Nc2ncc(F)c(Nc3cccc(OCc4cccnc4)c3)n2)cc1S(N)(=O)=O [Compound I-183, N2-(3-Aminosulfonyl-4-methylphenyl)-5-fluoro-N4-[3-(3-pyridinyl)methyleneoxyphenyl]-2,4-pyrimidinediamine] has an IC50 [1] of 1830 nM.

For NS(=O)(=O)c1cccc(Nc2ncc(F)c(Nc3ccc(SCc4cccnc4)cc3)n2)c1 [Compound I-192, N2-(3-Aminosulfonylphenyl)-5-fluoro-N4-[4-(3-pyridinyl)-methylenethiophenyl]-2,4-pyrimidinediamine], the IC50 [1] was 155 nM.

Compound COCCOc1ccc(Nc2nc(Nc3ccc(C)c(S(N)(=O)=O)c3)ncc2F)cc1 [VI-112, N2-(3-Aminosulfonyl-4-methylphenyl)-5-fluoro-N4-[4-(2-methoxyethyleneoxy)phenyl]-2,4-pyrimdinediamine] has an IC50 [2] of 770 nM.

Compound CNS(=O)(=O)c1cc(Nc2ncc(C)c(Nc3ccc(OCc4ccccn4)cc3)n2)ccc1C [Compound I-180, 5-Methyl-N2-[3-(N-methylaminosulfony)-4-methylphenyl]-N4-[4-(2-pyridinyl)methyleneoxyphenyl]-2,4-pyrimidinediamine] has an IC50 [1] of 28.7 nM.

Work on NS(=O)(=O)c1cccc(Nc2ncc(F)c(Nc3ccc(OCc4ccccn4)cc3)n2)c1 [Compound I-196, N2-(3-Aminosulfonylphenyl)-5-fluoro-N4-4-[(2-pyridinyl)methyleneoxyphenyl]-2,4-pyrimidinediamine Hydrochloride Salt] yielded an IC50 (primary human T-cell proliferation stimulated with IL-2, Hydrochloride Salt) of 139 nM.

For CNS(=O)(=O)c1cc(Nc2ncc(F)c(Nc3ccc4c(c3)CCN4S(C)(=O)=O)n2)ccc1C [VII-62, 5-Fluoro-N2-[3-(N-methylaminosulfony)-4-methylphenyl]-N4-[4-(1-methylsulfonyl)indolin-5-yl]-2,4-pyrimidinediamine], the IC50 [2] was 144 nM.

With Cc1cnc(Nc2cccc(S(N)(=O)=O)c2)nc1Nc1ccc(OCc2ccccn2)cc1 [Compound I-179, N2-(3-Aminosulfonylphenyl)-5-methyl-N4-[4-(2-pyridinyl)methyleneoxyphenyl]-2,4-pyrimidinediamine] the IC50 [1] was 11.8 nM.

Work on CNS(=O)(=O)c1cc(Nc2ncc(F)c(Nc3ccc(-c4ccccn4)c(OCF)c3)n2)ccc1C [Compound I-173, 5-Fluoro-N2-[3-N-(methyl)aminosulfonyl-4-methylphenyl]-N4-[4-(2-pyridinyl)-3-fluoromethyleneoxyphenyl]-2,4-pyrimidinediamine] yielded an IC50 [1] of 907 nM.

Cc1cc(Nc2nc(Nc3ccc(S(N)(=O)=O)cc3)ncc2F)cc(C)c1OC(C)C(N)=O (racemic) [Compound I-122, Racemic N4-[4-(1-Aminocarbonyl)ethoxy-3,5-dimethyl]phenyl-N2-(4-aminosulfonyl)phenyl-5-fluoro-2,4-pyrimidinediamine] was tested, and the IC50 [1] was 3500 nM.

Compound COCCOc1ccc(Nc2nc(Nc3ccc(Cl)c(S(N)(=O)=O)c3)ncc2F)cc1 [VI-111, N2-(3-Aminosulfonyl-4-chlorophenyl)-5-fluoro-N4-[4-(2-methoxyethyleneoxy)phenyl]-2,4-pyrimdinediamine] has an IC50 [2] of 1090 nM.

In the case of CCN(CC)CCNS(=O)(=O)c1ccc(Nc2ncc(F)c(Nc3ccc(OCc4ccccn4)cc3)n2)cc1 [Compound I-165, N2-[4-(2-N,N-Diethylaminoethyl)aminosulfonylphenyl)-5-fluoro-N4-[4-(2-pyridinyl)methyleneoxyphenyl]-2,4-pyrimidinediamine], the IC50 [1] is reported as 446 nM.

Cc1ccc(Nc2ncc(F)c(Nc3ccc(OC(C)(C)C(N)=O)cc3)n2)cc1S(N)(=O)=O [Compound I-127, N4-[4-(1-Aminocarbonyl-1-methyl)ethoxy]phenyl-N2-(3-aminosulfonyl-4-methyl)phenyl-5-fluoro-2,4-pyrimidinediamine] was tested, and the IC50 [1] was 510 nM.

Compound CN(C)C(=O)C1Cc2cc(Nc3nc(Nc4ccc(Cl)c(S(N)(=O)=O)c4)ncc3F)ccc2O1 (racemic) [VII-27, Racemic N2-(3-Aminosulfonyl-4-chlorophenyl)-N4-[2-(N,N-dimethylaminocarbonyl)-2,3-dihydrobenzofuran-5-yl]-5-fluoro-2,4-pyrimidinediamine] has an IC50 [2] of 2050 nM.

Cc1cc(COc2ccc(Nc3nc(Nc4ccc(C)c(S(N)(=O)=O)c4)ncc3F)cc2)n(Cc2ccccc2)n1 [Compound I-199, N2-(3-Aminosulfonyl-4-methylphenyl)-N4-[4-(1-benzyl-3-methyl-(1H)-pyrazol-5-yl)methyleneoxyphenyl]-5-fluoro-2,4-pyrimidinediamine] gave an IC50 [1] of 3030 nM.

NS(=O)(=O)c1ccc(Nc2ncc(F)c(Nc3ccc(OCc4ccccn4)cc3)n2)cc1 [Compound I-163, N2-(4-Aminosulfonylphenyl)-5-fluoro-N4-[4-(2-pyridinyl)methyleneoxyphenyl]-2,4-pyrimidinediamine] was tested, and the IC50 [1] was 439 nM.

Work on CNS(=O)(=O)c1cc(Nc2ncc(F)c(Nc3ccc(Cn4ccnc4)cc3)n2)ccc1C [III-85, 5-Fluoro-N2-[3-(N-methylaminosulfony)-4-methylphenyl]-N4-[4-(1-imidazolylmethyl)phenyl]-2,4-pyrimidinediamine hydrochloride] yielded an IC50 (primary human T-cell proliferation stimulated with IL-2, hydrochloride) of 122 nM.

With CC(C)(Oc1ccc(Nc2nc(Nc3cccc(S(N)(=O)=O)c3)ncc2F)cc1)C(N)=O [Compound I-126, N4-[4-(1-Aminocarbonyl-1-methyl)ethoxy]phenyl-N2-(3-aminosulfonyl)phenyl-5-fluoro-2,4-pyrimidinediamine] the IC50 [1] was 610 nM.

With Cc1ccc(Nc2ncc(F)c(Nc3ccc4c(c3)c(CC#N)cn4C)n2)cc1S(N)(=O)=O [IX-20] the IC50 [2] was 1790 nM.

With Cc1ccc(Nc2ncc(F)c(Nc3ccc4[nH]cc(CC#N)c4c3)n2)cc1S(=O)(=O)NC1CCN(C)CC1 [IX-19, N4-(3-cyanomethylene-1H-indol-5yl)-5-fluoro-N2-[3-(1-methyl-4-aminopiperadine)sulfonyl-4-methylphenyl]-2,4-pyrimidinediamine] the IC50 [2] was 1600 nM.
